Tests used:
hM4 receptors = biological target: T1, hM4 receptors (Homo sapiens, UniProt P08173); test: Human M4 PAM pERK assay; type: cell-based; conditions: CHO cells expressing hM4; EC20 of acetylcholine (10 nM final); TR-FRET
T1 construct: expressed in transfected cells; host or cells: CHO cells
T1 sequence (P08173 1-479): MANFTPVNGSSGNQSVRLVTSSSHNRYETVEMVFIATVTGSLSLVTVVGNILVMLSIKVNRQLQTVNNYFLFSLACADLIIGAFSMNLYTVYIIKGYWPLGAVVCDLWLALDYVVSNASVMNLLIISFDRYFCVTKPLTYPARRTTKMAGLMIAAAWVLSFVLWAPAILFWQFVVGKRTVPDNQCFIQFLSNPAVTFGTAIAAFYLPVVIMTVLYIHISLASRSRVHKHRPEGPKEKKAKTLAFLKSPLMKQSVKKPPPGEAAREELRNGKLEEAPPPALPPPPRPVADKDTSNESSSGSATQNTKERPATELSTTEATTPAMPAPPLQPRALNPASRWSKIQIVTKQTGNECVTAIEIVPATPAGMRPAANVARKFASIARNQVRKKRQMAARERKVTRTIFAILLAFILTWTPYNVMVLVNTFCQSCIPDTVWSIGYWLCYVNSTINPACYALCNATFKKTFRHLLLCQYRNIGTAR
Description: (§1) Chinese hamster ovary (CHO) cells expressing either hM4 or rM4 receptors were frozen in assay ready vials (5×10^6 cells/vial) after bulking-up in culture. The day before an assay, vial(s) were thawed and cells seeded in 384 well white proxiplates at 1000/well for hM4 cells and at 2000/well for rM4 cells, in 10 μL of growth media (Hams/F12 with glutamax and 10% FCS) and incubated overnight at 37° C./5% CO2.
(§2) On the following morning, the growth media was removed by ‘flicking out’ over a bin, patting the inverted plate onto tissue, and then replacing with 10 μL of wash media (Hams/F12 with glutamax and 8 mM HEPES, NB: serum free). Then, the wash media was removed in the same way and replaced with 8 μL/well of the serum free media. Plates were then re-incubated for a further 4 hours at 37° C./5% CO2.
(§3) Compounds for testing were solubilized to 10 mM in DMSO and compound addition plates, consisting of ten-point concentration response curves (CRC) in duplicate points (10 μM top concentration, 1/2 log dilution series), were prepared by acoustic dispensing and the compound management group.
(§4) After the 4-hour incubation in serum free media, a 4 μL aliquot of the 3× compound solution containing an EC20 of acetylcholine (10 nM final concentration) was added to the cell plate using a 384 well plate to plate transfer. Then, the plate lid was replaced, and the cells incubated for 5 mins at 37° C./5% CO2. Following this final incubation, all cellular processes were stopped by the addition of 4 μL/well of lysis and blocking buffer and plates were incubated for 30 minutes at RT on an orbital shaker (gentle setting). Then, a final addition of 4 μL/well of antibody detection mix, containing both the Europium-Cryptate (donor) and d2 (acceptor) tagged detection components, was added followed by a further 2-hour incubation at RT, and then the plate was read using a TR-FRET (time resolved fluorescence resonance energy transfer) based protocol.

rM4 receptors = biological target: T2, rM4 receptors (Rattus norvegicus, UniProt P08485); test: Rat M4 PAM pERK assay; type: cell-based; conditions: CHO cells expressing rM4; EC20 of acetylcholine (10 nM final); TR-FRET
T2 construct: expressed in transfected cells; host or cells: CHO cells
T2 sequence (P08485 1-478): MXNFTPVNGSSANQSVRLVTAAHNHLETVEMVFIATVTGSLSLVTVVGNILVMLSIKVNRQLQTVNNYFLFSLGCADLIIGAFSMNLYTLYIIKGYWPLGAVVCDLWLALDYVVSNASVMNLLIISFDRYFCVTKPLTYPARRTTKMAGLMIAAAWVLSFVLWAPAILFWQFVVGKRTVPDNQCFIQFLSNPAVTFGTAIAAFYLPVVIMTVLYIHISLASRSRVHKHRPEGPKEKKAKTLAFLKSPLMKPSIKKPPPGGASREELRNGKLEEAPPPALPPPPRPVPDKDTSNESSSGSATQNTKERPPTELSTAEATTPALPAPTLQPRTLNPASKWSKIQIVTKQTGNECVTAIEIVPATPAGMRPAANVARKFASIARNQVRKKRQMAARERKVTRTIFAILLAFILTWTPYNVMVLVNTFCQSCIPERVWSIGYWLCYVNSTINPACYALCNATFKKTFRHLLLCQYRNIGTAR
Description: as §1, §2, §3, §4

human M4 receptor = biological target: T3, human M4 receptor (Homo sapiens, UniProt P08173); test: M4 GTPγS PAM assay; type: biochemical; conditions: membranes of CHO-K1 cells stably expressing human M4; EC20 acetylcholine 40 nM; 35S-GTP
T3 construct: expressed in transfected cells
T3 sequence (P08173 1-479): T1 sequence (P08173 1-479)
Description: The M4 GTPγS PAM method was used. Membranes were prepared for GTPgS binding assays from CHO-K1 cells stably expressing human M4 receptor. Briefly, cells were grown in 5-layer cell culture flasks. Cells were washed with 50 mL of PBS and then dissociated with 0.05% trypsin. Dissociated cells were then collected by centrifugation at 650×g for 8 minutes at 4° C. Pellets were washed again in PBS by centrifugation and resuspended in 30 mL of 20 mM HEPES, 10 mM EDTA, pH 7.4. After sitting on ice for 30 min, membranes were collected by centrifugation at 50000×g for 15′ at 4° C., resuspended in 30 mL of 20 mM HEPES, 0.1 mM EDTA, pH 7.4 and collected again by centrifugation. Pellets were then washed twice by centrifugation in 30 mL of 20 mM HEPES, pH 7.4, and stored at −80° C. until the day of the assay. On the day of the assay, pellets were thawed on ice and resuspended in 1 mL of 20 mM HEPES, pH 7.4, 10 mM MgCl2, 100 mM NaCl using dounce homogenization. Membrane protein concentration is determined by BCA protein assay (Promega, Madison, WI) according to Promega guidelines.
On the day of the assay, serial dilutions of test PAM compounds were brought up in assay buffer (20 mM HEPES, 10 mM MgCl2, 100 mM NaCl) at 4× final assay concentration. […] of membrane homogenates (containing […] of membrane protein) were prepared in assay buffer supplemented with GDP at 4× final assay concentration (final assay concentration of GDP is 5 μM for M2 and 0.1 μM for M4) and dispensed into 96 well polypropylene, U-bottom Greiner plates. […] of vehicle or test PAM compound at 4× of final assay concentration diluted in the assay buffer were added to membrane and plates are incubated for 10-15 minutes at room temperature with gentle shaking. Then, […] of EC20 acetylcholine in assay buffer at 4× final assay concentration was added to assay plates (EC20 final assay concentrations was 40 nM for human M4).
Plates were then incubated, with shaking, for an additional 10-15 minutes. […] of 0.4 nM 35S-GTP (Perkin Elmer, Waltham, MA) in assay buffer was added to assay mixtures. The binding reaction is left on the shaker for 1 hour at room temperature. Membranes in assay reactions were then transferred to GF/C filter plates (Unifilter, Perkin Elmer) and washed three times using a FilterMate Harvester (Perkin Elmer) with cold assay buffer containing no GDP. Filter plates were then dried at 40° C. overnight followed by the addition of […] of Beta Plate Scintillation liquid. Plates are top and bottom sealed before being read on TopCount scintillation counter (Perkin Elmer, Waltham, MA).

| EC50 (hM4 receptors) [nM] | EC50 (rM4 receptors) [nM] | EC50 (human M4 receptor) [nM] | SMILES |
| --- | --- | --- | --- |
| ≥ 2000 | ≥ 2000 | ≥ 2000 | COc1nc(C)nc2c1C(C)N(C(=O)CC1CN(c3ccnc(C(F)(F)F)c3)C1)C2 (single isomer, unassigned) [Compound I-53, 1-(4-Methoxy-2,5-dimethyl-5,7-dihydro-6H-pyrrolo[3,4-d]pyrimidin-6-yl)-2-(1-(2-(trifluoromethyl)pyridin-4-yl)azetidin-3-yl)ethan-1-one] |
| ≥ 2000 | 500 to 2000 | ≥ 2000 | COc1nc(C)nc2c1CN(C(=O)CC1CN(c3ccc(C(F)(F)F)nc3)C1)C2 [Compound I-44, 1-(4-Methoxy-2-methyl-5,7-dihydro-6H-pyrrolo[3,4-d]pyrimidin-6-yl)-2-(1-(6-(trifluoromethyl)pyridin-3-yl)azetidin-3-yl)ethan-1-one] |
| ≥ 2000 | ≥ 2000 | ≥ 2000 | COc1nc(C)nc2c1C(C)N(C(=O)CC1CN(c3cncnc3)C1)C2 (single isomer, unassigned) [Compound I-60, 1-(4-Methoxy-2,5-dimethyl-5,7-dihydro-6H-pyrrolo[3,4-d]pyrimidin-6-yl)-2-(1-(pyrimidin-5-yl)azetidin-3-yl)ethan-1-one] |
| ≥ 2000 | ≥ 2000 | ≥ 2000 | COc1nc(C#N)nc2c1C(C)N(C(=O)CC1CN(c3ccc(C4CC4)nc3)C1)C2 (single isomer, unassigned) [Compound I-32, 6-(2-(1-(6-Cyclopropylpyridin-3-yl)azetidin-3-yl)acetyl)-4-methoxy-5-methyl-6,7-dihydro-5H-pyrrolo[3,4-d]pyrimidine-2-carbonitrile] |
| 500 to 2000 | ≥ 2000 | 500 to 2000 | COc1nc(C)nc2c1CN(C(=O)CC1CN(c3ccnc(C(F)(F)F)c3)C1)C2C (single isomer, unassigned) [Compound I-63, 1-(4-Methoxy-2,7-dimethyl-5,7-dihydro-6H-pyrrolo[3,4-d]pyrimidin-6-yl)-2-(1-(2-(trifluoromethyl)pyridin-4-yl)azetidin-3-yl)ethan-1-one] |
| 100 to 500 | 500 to 2000 | ≥ 2000 | COc1nc(C)nc2c1CN(C(=O)CC1CN(c3ncns3)C1)C2 [Compound I-45, 2-(1-(1,2,4-Thiadiazol-5-yl)azetidin-3-yl)-1-(4-methoxy-2-methyl-5,7-dihydro-6H-pyrrolo[3,4-d]pyrimidin-6-yl)ethan-1-one] |
| ≤ 100 | 500 to 2000 | ≥ 2000 | COc1nc(C#N)nc2c1C(C)N(C(=O)CC1CN(c3cncnc3)C1)C2 (single isomer, unassigned) [Compound I-27, 4-Methoxy-5-methyl-6-(2-(1-(pyrimidin-5-yl)azetidin-3-yl)acetyl)-6,7-dihydro-5H-pyrrolo[3,4-d]pyrimidine-2-carbonitrile] |
| ≥ 2000 | ≥ 2000 | ≥ 2000 | Cc1nc2c(c(OC(C)C)n1)CN(C(=O)CC1CN(c3ccnc(C(F)(F)F)c3)C1)C2 [Compound I-47, 1-(4-Isopropoxy-2-methyl-5,7-dihydro-6H-pyrrolo[3,4-d]pyrimidin-6-yl)-2-(1-(2-(trifluoromethyl)pyridin-4-yl)azetidin-3-yl)ethan-1-one] |
| ≥ 2000 | ≥ 2000 | ≥ 2000 | COc1nc2c(c(OC)n1)C(C)N(C(=O)CC1CN(c3ccnc(C(F)(F)F)c3)C1)C2 (single isomer, unassigned) [Compound I-69, 1-(2,4-Dimethoxy-5-methyl-5,7-dihydro-6H-pyrrolo[3,4-d]pyrimidin-6-yl)-2-(1-(2-(trifluoromethyl)pyridin-4-yl)azetidin-3-yl)ethan-1-one] |
| 100 to 500 | 500 to 2000 | ≤ 100 | COc1nc2c(c(OC)n1)C(C)N(C(=O)CC1CN(c3ccnc(C(F)(F)F)c3)C1)C2 (racemic) [Compound I-67, 1-(2,4-Dimethoxy-5-methyl-5,7-dihydro-6H-pyrrolo[3,4-d]pyrimidin-6-yl)-2-(1-(2-(trifluoromethyl)pyridin-4-yl)azetidin-3-yl)ethan-1-one] |
| ≥ 2000 | ≥ 2000 | ≥ 2000 | COc1nc(C#N)nc2c1C(C)N(C(=O)CC1CN(c3ccnc(C(F)(F)F)c3)C1)C2 (single isomer, unassigned) [Compound I-5, 4-Methoxy-5-methyl-6-(2-(1-(2-(trifluoromethyl)pyridin-4-yl)azetidin-3-yl)acetyl)-6,7-dihydro-5H-pyrrolo[3,4-d]pyrimidine-2-carbonitrile] |
| ≤ 100 | 100 to 500 | 100 to 500 | COc1nc(C#N)nc2c1C(C)N(C(=O)CC1CN(c3ccc(C4CC4)nc3)C1)C2 (single isomer, unassigned) [Compound I-33, 6-(2-(1-(6-Cyclopropylpyridin-3-yl)azetidin-3-yl)acetyl)-4-methoxy-5-methyl-6,7-dihydro-5H-pyrrolo[3,4-d]pyrimidine-2-carbonitrile] |
| ≥ 2000 | ≥ 2000 | ≥ 2000 | COc1nc(C#N)nc2c1C(C)N(C(=O)CC1CN(c3ncns3)C1)C2 (single isomer, unassigned) [Compound I-4, 6-(2-(1-(1,2,4-Thiadiazol-5-yl)azetidin-3-yl)acetyl)-4-methoxy-5-methyl-6,7-dihydro-5H-pyrrolo[3,4-d]pyrimidine-2-carbonitrile] |

Reference: patent US20260209234A1, “SUBSTITUTED DIHYDROPYRROLO[3,4-D]PYRIMIDINE COMPOUNDS AND THEIR USE IN TREATING MEDICAL CONDITIONS” (Karuna Therapeutics, Inc., priority 2022, published 2026)
